Measured values as given in patent US7138361B2, “Herbicidal heterocycles” (E. I. du Pont de Nemours and Company, priority 2000, dated 2006).

How the values were obtained:
Type in all cases: in vivo
rice (Oryza saliva) = assay: Test C flooded paddy test; conditions: for Plant response rating, Rice: scale 0 to 100 (0 no effect, 100 complete control)
Outline: (§1)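 Visually assessed vs untreated controls 12–14 d post-treatment (greenhouse). Flooded paddy plants were at the 2-leaf stage; scale 0 = no effect, 100 = complete control.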

[1] = tested on: duck salad (Heteranthera limosa); assay: Test C flooded paddy test; conditions: for Plant response rating, Ducksalad: scale 0 to 100 (0 no effect, 100 complete control)
Outline: as §1

[2] = tested on: smallflower flatsedge (Cyperus difformis); assay: Test C flooded paddy test; conditions: for Plant response rating, Flatsedge: scale 0 to 100 (0 no effect, 100 complete control)
Outline: as §1

[3] = tested on: giant foxtail (Setaria faberii); assay: Test C preemergence
Outline: (§2)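 Plants held in greenhouse for 12–14 days post-application are scored by eye against controls on a 0–100 control scale. Application timing: preemergence on sown seed, or postemergence on 2–18 cm plants.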

kochia (Kochia scoparia) = assay: Test C preemergence
Outline: as §2

[4] = tested on: morningglory (Ipomoea hederacea); assay: Test C preemergence
Outline: as §2

[5] = tested on: goosegrass (Eleusine indica); assay: Test C preemergence
Outline: as §2

[6] = tested on: woolly cupgrass (Eriochloa villosa); assay: Test C preemergence
Outline: as §2

[7] = tested on: cocklebur (Xanthium strumarium); assay: Test C preemergence
Outline: as §2

[8] = tested on: yellow nutsedge (Cyperus esculentus); assay: Test C preemergence
Outline: as §2

[9] = tested on: velvetleaf (Abutilon theophrasti); assay: Test C preemergence
Outline: as §2

[10] = tested on: common ragweed (Ambrosia elatior); assay: Test C preemergence
Outline: as §2

[11] = tested on: pigweed (Amaranthus retroflexus); assay: Test C preemergence
Outline: as §2

[12] = tested on: bermudagrass (Cynodon dactylon); assay: Test C preemergence
Outline: as §2

[13] = tested on: johnsongrass (Sorghum halepense); assay: Test C preemergence
Outline: as §2

[14] = tested on: lambsquarters (Chenopodium album); assay: Test C preemergence
Outline: as §2

corn (Zea mays) = assay: Test C preemergence
Outline: as §2

Sunflower = assay: Test C preemergence; conditions: Rate 125 g/ha; scale 0 to 100, 0 no effect, 100 complete control
Nightshade = assay: Test C preemergence
soybean (Glycine max) = assay: Test C preemergence
Outline: as §2

[15] = tested on: Surinam grass (Brachiaria decumbens); assay: Test C preemergence
Outline: as §2

[16] = tested on: crabgrass (Digitaria sanguinalis); assay: Test C preemergence
Outline: as §2

[17] = Flooded Paddy, Rate 500 g/ha, scale 0 to 100, 0 no effect, 100 complete control
[18] = flooded paddy test, Rate 125 g/ha
[19] = flooded paddy test, Rate 250 g/ha
[20] = flooded paddy test, Rate 62 g/ha, visually evaluated after 12 to 14 days, 0 = no effect, 100 = complete control
[21] = Rate 125 g/ha, scale 0 to 100, 0 no effect, 100 complete control
[22] = preemergence, Rate 31 g/ha, scale 0 to 100
[23] = preemergence, Rate 62 g/ha, scale 0 to 100
[24] = preemergence, Rate 250 g/ha, scale 0 to 100, 0 no effect, 100 complete control

`Cc1cc(C)nc(N2CCC(n3ccc(C(C)(C)C)n3)C2=O)c1` (stereo not drawn) [Compound 138] was tested, and the “Rice plant response rating” value (rice (Oryza saliva); [17]) was 70, the “Plant response rating, Rice” value (rice (Oryza saliva); [18]) was 0 and the “Plant response rating, Rice” value (rice (Oryza saliva); [19]) was 30. The “Plant response rating (scale 0 to 100), Rice” value (rice (Oryza saliva); [20]) was 0, the “Ducksalad plant response rating” value [1, 17] was 100 and the “Plant response rating, Ducksalad” value [1, 18] was 20. The “Plant response rating, Ducksalad” value [1, 19] was 60, the “Plant response rating (scale 0 to 100), Ducksalad” value [1, 20] was 0 and the “Flatsedge plant response rating” value [2, 17] was 100. The “Plant response rating, Flatsedge” value [2, 18] was 90, the “Plant response rating, Flatsedge” value [2, 19] was 100 and the “Plant response rating (scale 0 to 100), Flatsedge” value [2, 20] was 90. The “Plant response rating, Foxtail, Giant” value [3, 21] was 100, the “Plant response rating, Foxtail, Giant” value [3, 22] was 50 and the “Plant response rating, Foxtail, Giant” value [3, 23] was 80. The “Plant response rating, Foxtail, Giant” value [3, 24] was 100, the “Plant response rating, Kochia” value (kochia (Kochia scoparia); [21]) was 100 and the “Plant response rating, Kochia” value (kochia (Kochia scoparia); [22]) was 60. The “Plant response rating, Kochia” value (kochia (Kochia scoparia); [23]) was 90, the “Plant response rating, Kochia” value (kochia (Kochia scoparia); [24]) was 100 and the “Plant response rating, Morningglory” value [4, 21] was 80. For the same compound, the “Plant response rating, Morningglory” value [4, 22] was 30, the “Plant response rating, Morningglory” value [4, 23] was 30 and the “Plant response rating, Morningglory” value [4, 24] was 80. For the same compound, the “Plant response rating, Goosegrass” value [5, 21] was 90, the “Plant response rating, Goosegrass” value [5, 22] was 20 and the “Plant response rating, Goosegrass” value [5, 23] was 80. For the same compound, the “Plant response rating, Goosegrass” value [5, 24] was 100, the “Plant response rating, Cupgrass, Woolly” value [6, 21] was 60 and the “Plant response rating, Cupgrass, Woolly” value [6, 22] was 0. For the same compound, the “Plant response rating, Cupgrass, Woolly” value [6, 23] was 40, the “Plant response rating, Cupgrass, Woolly” value [6, 24] was 100 and the “Plant response rating, Cocklebur” value [7, 21] was 0. The “Plant response rating, Cocklebur” value [7, 22] was 0, the “Plant response rating, Cocklebur” value [7, 23] was 0 and the “Plant response rating, Cocklebur” value [7, 24] was 0. The “Plant response rating, Nutsedge” value [8, 21] was 0, the “Plant response rating, Nutsedge” value [8, 22] was 0 and the “Plant response rating, Nutsedge” value [8, 23] was 0. For the same compound, the “Plant response rating, Nutsedge” value [8, 24] was 40, the “Plant response rating, Velvetleaf” value [9, 21] was 0 and the “Plant response rating, Velvetleaf” value [9, 22] was 0. The “Plant response rating, Velvetleaf” value [9, 23] was 0, the “Plant response rating, Velvetleaf” value [9, 24] was 0 and the “Plant response rating, Ragweed, Common” value [10, 21] was 0. The “Plant response rating, Ragweed, Common” value [10, 22] was 0, the “Plant response rating, Ragweed, Common” value [10, 23] was 0 and the “Plant response rating, Ragweed, Common” value [10, 24] was 30. The “Plant response rating, Pigweed” value [11, 21] was 50, the “Plant response rating, Pigweed” value [11, 22] was 0 and the “Plant response rating, Pigweed” value [11, 23] was 30. The “Plant response rating, Pigweed” value [11, 24] was 50, the “Plant response rating, Bermudagrass” value [12, 21] was 70 and the “Plant response rating, Bermudagrass” value [12, 22] was 60. For the same compound, the “Plant response rating, Bermudagrass” value [12, 23] was 70, the “Plant response rating, Bermudagrass” value [12, 24] was 100 and the “Plant response rating, Johnsongrass” value [13, 21] was 30. The “Plant response rating, Johnsongrass” value [13, 22] was 0, the “Plant response rating, Johnsongrass” value [13, 23] was 0 and the “Plant response rating, Johnsongrass” value [13, 24] was 40. The “Plant response rating, Lambsquarters” value [14, 21] was 100, the “Plant response rating, Lambsquarters” value [14, 22] was 100 and the “Plant response rating, Lambsquarters” value [14, 23] was 100. For the same compound, the “Plant response rating, Lambsquarters” value [14, 24] was 100, the “Plant response rating, Corn” value (corn (Zea mays); [21]) was 0 and the “Plant response rating, Corn” value (corn (Zea mays); [22]) was 0. The “Plant response rating, Corn” value (corn (Zea mays); [23]) was 0, the “Plant response rating, Corn” value (corn (Zea mays); [24]) was 30 and the “Plant response rating, Sunflower” value (Sunflower) was 0. The “Plant response rating, Nightshade” value (Nightshade; Rate 31 g/ha, scale 0 to 100) was 0, the “Plant response rating, Nightshade” value (Nightshade; Rate 62 g/ha, scale 0 to 100) was 0 and the “Plant response rating, Nightshade” value (Nightshade; [21]) was 50. For the same compound, the “Plant response rating, Nightshade” value (Nightshade; Rate 250 g/ha, scale 0 to 100, 0 no effect, 100 complete control) was 90, the “Plant response rating, Soybean” value (soybean (Glycine max); [21]) was 60 and the “Plant response rating, Soybean” value (soybean (Glycine max); [23]) was 30. For the same compound, the “Plant response rating, Soybean” value (soybean (Glycine max); [24]) was 100, the “Plant response rating, Surinam grass” value [15, 21] was 0 and the “Plant response rating, Surinam grass” value [15, 22] was 0. For the same compound, the “Plant response rating, Surinam grass” value [15, 23] was 0, the “Plant response rating, Surinam grass” value [15, 24] was 100 and the “Plant response rating, Crabgrass” value [16, 21] was 100. For the same compound, the “Plant response rating, Crabgrass” value [16, 22] was 20, the “Plant response rating, Crabgrass” value [16, 23] was 70 and the “Plant response rating, Crabgrass” value [16, 24] was 100.
